This is an account of results in patent publication US8361987B2, “DNA vaccines encoding heat shock proteins” (priority 2002, dated 2013).

The subject of assay [1] is adjuvant arthritis (AA). The assay is described as follows: Adoptive transfer of Con A-activated splenocytes from peptide-vaccinated rats, then AA induction in recipients. Type of assay: in vivo, Lewis rats. As to conditions: 5×10^7 Con A-activated splenocytes of peptide-vaccinated donors iv; AA induced three days later. As to the method: Spleen cells were prepared from peptide-vaccinated rats 26 days after the induction of AA. The splenocytes (10^7 cells per ml) were activated with 2.5 μg/ml of Con A for 48 hr at 37° C. in a humidified atmosphere of 5% CO2. The cells were washed with sterile PBS and injected iv into naïve rats (5×10^7 cells per rat). Three days after the transfer of the splenocytes, AA was induced.
To learn whether the protection triggered by Hu3-vaccination could be adoptively transferred by activated T-cells, splenocytes prepared from Hu3 vaccinated rats were stimulated in vitro for 2 days with the T-cell mitogen Con A, washed, and injected iv (5×10^7 cells per rat) into naïve rats. Only the recipients of cells taken from Hu3-vaccinated rats were protected against the subsequent induction of AA (FIGS. 4A and 4B). […] Thus, inhibition of AA by vaccination with Hu3 could be adoptively transferred by activated T-cells.

Assay [2] concerns lymph node cells (LNC). Put plainly: T-cell proliferation ([methyl-3H]-thymidine incorporation, stimulation index) of cells from vaccinated rats. Type of assay: cell-based, Lewis rats. As to conditions: for T-cell response to the immunizing peptide: LNC of peptide-vaccinated rats after AA induction. As to the method: Popliteal and inguinal lymph node cells (LNC) taken 26 days after the induction of AA were cultured in quadruplicates in 200 μl round bottom microtiter wells (Costar Corp., Cambridge, USA) at 2×10^5 cells per well with or without antigen. The T-cell mitogen Concanavalin A (Con A) was used as a positive control for T-cell proliferation. Cultures were incubated for 96 hrs at 37° C. in a humidified atmosphere of 5% CO2. T-cell responses were detected by the incorporation of [methyl-^3H]-thymidine (Amersham, Buckinghamshire, UK; 1 μCi/well), which was added to the wells for the last 18 hours. The stimulation index (SI) was computed as the ratio of the mean c.p.m. of antigen- or mitogen-containing wells to control wells cultured with medium alone.
In general terms: Incorporation of labelled thymidine or its analogues reports DNA synthesis.

The subject of assay [3] is adjuvant arthritis (AA). Put plainly: Adjuvant arthritis (AA) induction and assessment after DNA or peptide vaccination. Type of assay: in vivo, Lewis rats. As to the method: Plasmid DNA was prepared in large scale and injected after pretreatment with cardiotoxin (Sigma, Rehovot, Israel). Briefly, rats were vaccinated in the quadriceps three times (on days −40, −26 −12 relative to AA induction) with 150 μg of pcDNA3, pI, pII, pIII, pIV or pV. Endotoxin levels were checked by Limulus Amoebocyte Lysate and found always to be under acceptable levels for in vivo use (less than 0.02 EU/μg DNA). AA was induced 12 days after the last injection of DNA. The empty vector pcDNA3 was used as a DNA vaccination control.
AA was induced using 1 mg per rat of heat-killed Mt strain H37Ra (Difco). The day of AA induction was designated as day 0, and disease severity was assessed by direct observation of all 4 limbs in each animal. A relative score between 0 and 4 was assigned to each limb, based on the degree of joint inflammation, redness and deformity; thus the maximum possible score for an individual animal was 16. Arthritis was also quantified by measuring hind limb diameter with a caliper. Measurements were taken on the day of AA induction and 26 days later, and they are presented as the mean±SEM of the difference between the two values. The person who scored the disease was blinded to the identity of the groups. […]

Assay [4] relates to IFNγ, IL-10 and TGFβ1 secretion by LNC. Put plainly: Cytokine assays (ELISA of culture supernatants after 72 hrs antigen stimulation). Type of assay: cell-based, Lewis rats. An excerpt: Supernatants were collected after 72 hrs of stimulation with each of the antigens tested. Rat IL-10 and IFNγ were quantitated in culture supernatants by enzyme-linked immunosorbent assay (ELISA) using Pharmingen's OPTEIA kit (Pharmingen, San Diego, USA). Rat TGFβ1 was quantified using the TGFβ1 Emax® ImmunoAssay System (Promega, Madison, USA) according to the manufacturer's instructions. Cytokine levels in supernatants are expressed as pg/ml based on calibration curves constructed using recombinant cytokines as standards. The lower limits of detection for the experiments described in this paper were 15 pg/ml for TGFβ1, IL-10 and IFNγ.
(In an ELISA, binding on a coated surface is turned into a signal by an enzyme label.)

Setting [5] is: LNC day 26 after AA induction, 72 hr.
Setting [6] is: LNC of peptide-vaccinated rats, day 26 after AA induction.

As to “AYDEEARRGLERGLNALADA [Mt3, mycobacterial HSP65 peptide, counterpart of Hu3, reference compound]”, in assay [1], the “protection of recipients against subsequent induction of AA” value is “No protection”. Moreover, in assay [2], the “T-cell response to the immunizing peptide” value (“T-cell response” for short) is “significant and specific T-cell responses”.
“EEIAQVATISANGDKEIGNI [Hu12, human HSP60 peptide 166-185, control peptide, reference compound]”: the “T-cell response” value in assay [2] was “significant and specific T-cell responses”; in assay [2] (listed as HU12), “proliferated”.
As to “KFGADARALMLQGVDLLADA (listed as Homo sapiens) [Hu3]”, in assay [3] (peptide vaccination 100 μg in IFA day −7, day 26 after AA induction, vs 32.2±3.5 in PBS/IFA, p=0.02), the ankle swelling came out at 14.2±4.7. Further, the “AA disease severity after peptide vaccination” value in assay [3] (single i.p. dose of 100 μg peptide in IFA on day −7, compared to non-immunized rats or PBS, Hu12 or Mt3) is on record as “significantly decreased disease”. Besides, the “protection of recipients against subsequent induction of AA” value in assay [1] is “protected”. Also, in assay [2] (LNC day 26 after AA induction), the “T-cell proliferative responses to both self- and mycobacterial antigens” value is reported as “up-regulation”; the “proliferative response to HSP60” value is reported as “induction of a specific response”; the “proliferative response to control peptide Hu12” value was “no responses”. Further, the “proliferative response to Hu3” value in assay [2] (LNC day 26 after AA induction, stimulated in vitro with Hu3) is on record as “recognized”. In assay [2] (LNC day 26 after AA induction, relative to controls), the “T-cell proliferative responses to mycobacterial antigens (PPD, HSP65, Mt176-190)” value is “up-regulated”. In assay [2], the “T-cell response” value is “significant and specific T-cell responses”. In assay [4] (setting [5]), the “IFNγ secretion upon stimulation with mycobacterial antigens (PPD, HSP65, Mt176-190)” value was “reduction”; the “IL-10 secretion upon stimulation with mycobacterial antigens (PPD, HSP65, Mt176-190)” value is “increase”; the “TGFβ1 secretion upon stimulation with mycobacterial antigens (PPD, HSP65, Mt176-190)” value is “increase”. In addition, the “secretion of IFNγ, stimulated with Hu3” value in assay [4] (LNC day 26 after AA induction, relative to respective controls (FIG. 12B)) is “increased”. Moreover, in assay [4] (setting [6]), the “cytokine response to whole HSP60” value is given as “predominantly TFGβ1”; the “cytokines secreted in response to Hu3” value is “secreted IFNγ, IL-10 and TGFβ1”.
